# Results taken from ChEMBL document CHEMBL5034034 (J Med Chem, 2021).
# Active and inactive are the calls of the source. The rule behind the calls is not given here.
# Assays:
# Sus scrofa [1] = species on record: Sus scrofa; assay: Stability of the compound assessed as porcine pancreatic elastase-mediated parent compound depletion by measuring parent compound remaining after 1 hr by LC-MS/MS analysis
# [2] = AUC extrapolated in Wistar Han rat at 5 mg/kg, id measured upto 24 hrs by LC-MS/MS analysis; assay type: ADME, organism-based; details: in vivo, other
# [3] = AUC(0 to infinity) in Wistar Han rat at 5 mg/kg, id measured upto 24 hrs by LC-MS/MS analysis; assay type: ADME, organism-based; set-up: dose 5 mg/kg, time <=24; details: in vivo
# [4] = Metabolic stability in cynomolgus monkey whole blood assessed as half life measured upto 6 hrs by LC-MS/MS analysis; assay type: ADME, tissue-based, Macaca fascicularis
# [5] = target: T1, Proprotein convertase subtilisin/kexin type 9 (Homo sapiens, UniProt Q8NBP7); assay: Inhibition of human PCSK9 using Alexa Fluor […] as substrate incubated for 2 hrs by FRET assay
# [6] = target: T1, Proprotein convertase subtilisin/kexin type 9; assay: Inhibition of human PCSK9 using Alexa Fluor […] as substrate incubated for 2 hrs by FRET plus assay
# [7] = target: T1, Proprotein convertase subtilisin/kexin type 9; assay: Inhibition of human PCSK9 using Alexa Fluor […] as substrate incubated for 2 hrs by FRET ultra assay
# [8] = target: T2, Solute carrier organic anion transporter family member 1B1 (Homo sapiens, UniProt Q9Y6L6); assay: Inhibition of OATP1B1 (unknown origin) expressed in HEK293 cells assessed as reduction in OATP 1B1-mediated [3H]-pitavastatin uptake preincubated for 30 mins followed by [3H]-pitavastatin addition and measured after 2 mins by liquid scintillation analysis; assay type: cell-based
# T2 sequence (Q9Y6L6 whole entry): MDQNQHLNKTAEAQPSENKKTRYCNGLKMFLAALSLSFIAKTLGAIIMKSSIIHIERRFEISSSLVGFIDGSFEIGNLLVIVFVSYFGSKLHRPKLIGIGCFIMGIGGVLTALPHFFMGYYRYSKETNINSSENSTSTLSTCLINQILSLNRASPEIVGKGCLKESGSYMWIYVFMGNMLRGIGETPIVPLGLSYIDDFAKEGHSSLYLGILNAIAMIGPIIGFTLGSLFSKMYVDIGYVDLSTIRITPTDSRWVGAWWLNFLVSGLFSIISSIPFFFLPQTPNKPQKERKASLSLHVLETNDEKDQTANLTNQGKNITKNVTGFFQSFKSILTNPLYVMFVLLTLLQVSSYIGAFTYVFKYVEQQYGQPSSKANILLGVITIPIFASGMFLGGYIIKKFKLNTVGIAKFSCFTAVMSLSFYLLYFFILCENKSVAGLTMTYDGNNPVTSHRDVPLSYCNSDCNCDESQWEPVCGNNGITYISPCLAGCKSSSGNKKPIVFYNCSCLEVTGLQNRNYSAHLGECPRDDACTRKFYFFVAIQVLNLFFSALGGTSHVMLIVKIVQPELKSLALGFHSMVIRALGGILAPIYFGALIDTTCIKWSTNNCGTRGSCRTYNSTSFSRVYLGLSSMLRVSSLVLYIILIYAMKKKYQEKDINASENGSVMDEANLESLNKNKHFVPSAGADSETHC
# Bos taurus = species on record: Bos taurus; assay: Stability of the compound assessed as bovine pancreas alpha chymotrypsin-mediated parent compound depletion by measuring parent compound remaining after 1 hr by LC-MS/MS analysis
# Sus scrofa [9] = species on record: Sus scrofa; assay: Stability of the compound assessed as porcine pepsin-mediated parent compound depletion by measuring parent compound remaining after 1 hr by LC-MS/MS analysis
# [10] = Stability of the compound assessed as bovine pancreatic trypsin-mediated parent compound depletion by measuring parent compound remaining after 1 hr by LC-MS/MS analysis; assay type: ADME, Bos taurus; details: cattle, read-out: Stability
# [11] = Cmax in Wistar Han rat at 5 mg/kg, id measured upto 24 hrs by LC-MS/MS analysis; assay type: ADME, organism-based; set-up: dose 5 mg/kg, time <=24; details: in vivo
# [12] = Tmax in Wistar Han rat at 5 mg/kg, id measured upto 24 hrs by LC-MS/MS analysis; assay type: ADME, organism-based; details: in vivo
# [13] = Bioavailability in Wistar Han rat at 5 mg/kg, id measured upto 24 hrs by LC-MS/MS analysis; assay type: ADME, organism-based; details: in vivo
# [14] = AUC(0 to infinity) in cynomolgus monkey at 0.2 mg/kg, iv measured upto 72 hrs by LC-MS/MS analysis; assay type: ADME, organism-based, Macaca fascicularis; set-up: route intravenous, dose 0.2 mg/kg, time <=72; details: in vivo
# [15] = Clearance in cynomolgus monkey at 0.2 mg/kg, iv measured upto 72 hrs by LC-MS/MS analysis; assay type: ADME, organism-based, Macaca fascicularis; details: in vivo
# [16] = Volume of distribution at steady state in cynomolgus monkey at 0.2 mg/kg, iv measured upto 72 hrs by LC-MS/MS analysis; assay type: ADME, organism-based, Macaca fascicularis; details: in vivo, read-out: Vdss
# [17] = Half life in cynomolgus monkey at 0.2 mg/kg, iv measured upto 72 hrs by LC-MS/MS analysis; assay type: ADME, organism-based, Macaca fascicularis; details: in vivo
# [18] = Protein binding in cynomolgus monkey at 0.2 mg/kg, iv measured upto 72 hrs by LC-MS/MS analysis; assay type: ADME, organism-based, Macaca fascicularis; details: in vivo, read-out: PB (converted)
# [19] = Unbound clearance in cynomolgus monkey at 0.2 mg/kg, iv measured upto 72 hrs by LC-MS/MS analysis; assay type: ADME, organism-based, Macaca fascicularis; details: in vivo
# [20] = AUC(0 to infinity) in cynomolgus monkey at 1 mg/kg, po measured upto 72 hrs by LC-MS/MS analysis; assay type: ADME, organism-based, Macaca fascicularis; set-up: route oral, dose 1 mg/kg, time <=72; details: in vivo
# [21] = AUC extrapolated in cynomolgus monkey at 1 mg/kg, po measured upto 72 hrs by LC-MS/MS analysis; assay type: ADME, organism-based, Macaca fascicularis; details: in vivo
# [22] = Cmax in cynomolgus monkey at 1 mg/kg, po measured upto 72 hrs by LC-MS/MS analysis; assay type: ADME, organism-based, Macaca fascicularis; set-up: route oral, dose 1 mg/kg, time <=72; details: in vivo
# [23] = Tmax in cynomolgus monkey at 1 mg/kg, po measured upto 72 hrs by LC-MS/MS analysis; assay type: ADME, organism-based, Macaca fascicularis; details: in vivo
# [24] = Oral bioavailability in cynomolgus monkey at 1 mg/kg measured upto 72 hrs by LC-MS/MS analysis; assay type: ADME, organism-based, Macaca fascicularis; details: in vivo
# Mast cell = assay: Induction of rat mast cells degranulation activity at 100 uM incubated for 30 mins; assay type: functional, tissue-based
# [25] = target: T1, Proprotein convertase subtilisin/kexin type 9; assay: Inhibition of PCSK9 in human plasma assessed as reduction in unbound PCSK9 by target engagement assay; assay type: cell-free
# Macaca fascicularis [26] = species on record: Macaca fascicularis; assay: Inhibition of PCSK9 in cynomolgus monkey plasma assessed as reduction in unbound PCSK9 by target engagement assay; assay type: cell-free
# [27] = Reduction in LDL-cholesterol levels in cynomolgus monkey at 0.2 mg/kg, iv after 48 hrs; assay type: functional, Macaca fascicularis; set-up: scale not given: the % may be the effect or the level left
# Macaca fascicularis [28] = assay: Reduction in LDL-cholesterol levels in cynomolgus monkey at 0.2 mg/kg, iv after 4 weeks; assay type: functional, organism-based
# [29] = Reduction in unbound PCSK9 levels in cynomolgus monkey at 0.2 mg/kg, iv after 24 to 48 hrs; assay type: functional, Macaca fascicularis; set-up: scale not given: the % may be the effect or the level left; details: time 24-48 hrs
# [30] = Reduction in unbound PCSK9 levels in cynomolgus monkey at 0.2 mg/kg, po after 0.5 to 6 hrs; assay type: functional, Macaca fascicularis; set-up: scale not given: the % may be the effect or the level left; details: time 0.5-6 hrs
# [31] = Reduction in unbound PCSK9 levels in cynomolgus monkey at 0.2 mg/kg, po after 24 hrs; assay type: functional, Macaca fascicularis; set-up: scale not given: the % may be the effect or the level left
# T1 sequence (Q8NBP7 31-152 limits assumed): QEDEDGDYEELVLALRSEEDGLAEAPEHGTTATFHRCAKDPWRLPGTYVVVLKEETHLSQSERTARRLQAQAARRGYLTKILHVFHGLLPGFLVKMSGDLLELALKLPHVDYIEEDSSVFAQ
# T1 sequence (Q8NBP7 153-692 limits assumed): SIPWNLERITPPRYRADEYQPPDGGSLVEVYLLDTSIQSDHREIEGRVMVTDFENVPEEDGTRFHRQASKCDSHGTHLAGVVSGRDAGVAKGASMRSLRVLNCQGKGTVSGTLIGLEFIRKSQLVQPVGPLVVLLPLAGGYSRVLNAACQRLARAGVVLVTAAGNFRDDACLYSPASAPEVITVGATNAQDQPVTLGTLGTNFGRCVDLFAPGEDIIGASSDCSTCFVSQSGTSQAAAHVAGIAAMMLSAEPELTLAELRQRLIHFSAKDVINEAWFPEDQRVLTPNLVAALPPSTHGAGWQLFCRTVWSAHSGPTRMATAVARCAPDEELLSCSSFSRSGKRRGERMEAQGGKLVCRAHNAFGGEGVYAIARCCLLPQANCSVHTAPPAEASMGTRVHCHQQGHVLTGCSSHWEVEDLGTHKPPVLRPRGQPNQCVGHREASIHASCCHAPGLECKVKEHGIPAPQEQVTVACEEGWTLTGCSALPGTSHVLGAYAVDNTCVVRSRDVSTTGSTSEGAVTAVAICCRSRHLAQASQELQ
structure (smiles),measurement,setting,value
COc1ccc(C[C@@H]2NC(=O)[C@H]([C@@H](C)O)NC(=O)[C@@H]3[C@@H]4CCN3C(=O)[C@@H]3Cc5cn(c6ccc(F)cc56)Cc5cn(nn5)-c5cc(cc(c5)CSCCC(=O)N[C@@H](CNC(=O)CCOCCOCC[N+](C)(C)C)C(=O)N[C@H](C)C(=O)N[C@@H](Cc5cccc(c5)C/C=C/CO4)C(=O)N3)CSCCNC(=O)[C@]3(C)CCCN3C2=O)cc1,Stability,Sus scrofa [1],97%
same,%AUCextra,[2],3%
same,AUC(0-inf),[3],0.274 µM·h
same,half-life,[4],> 6 h
same,Ki,[5],> 0.129 nM
same,Ki,[6],0.0114 nM
same,Ki,[7],0.00239 nM
same,EC50,[8],> 22000 nM
same,Stability,Bos taurus,93%
same,Stability,Sus scrofa [9],97.2%
same,remaining at 1 h,[10],96.8%
same,Cmax,[11],92 nM
same,Tmax,[12],0.5 h
same,bioavailability,[13],2.7%
same,AUC(0-inf),[14],1.47 µM·h
same,clearance,[15],1.4 mL/min/kg
same,Vd,[16],0.7 L/kg
same,half-life,[17],7.6 h
same,fraction unbound at 72 h,[18],0.247
same,CL free,[19],5.8 mL/min/kg
same,AUC(0-inf),[20],0.216 µM·h
same,%AUCextra,[21],43%
same,Cmax,[22],9.8 nM
same,Tmax,[23],2 h
same,bioavailability,[24],2.9%
same,Activity,Mast cell,inactive
same,inhibition,[25],Active
same,inhibition,Macaca fascicularis [26],Active
same,Activity,[27],>50%
same,Activity,Macaca fascicularis [28],inactive
same,Activity,[29],>80%
same,Activity,[30],80%
same,Activity,[31],60%
